Data set [1] deals with A-549 cancer cells. The data set is described as follows: MTT-based cell viability assay, A-549. Particulars: Homo sapiens, A549, 72 h, read-out: A-549 cancer cell toxicity GI50 ± SEM. The text has this:
(§1) MCT1-expressing cells have an extraordinary energy demand and rely on pyruvate metabolism, through either lactate conversion or pyruvate consumption. Inhibition of MCT1 blocks lactate and pyruvate influx into cancer cells, which prevents their processing in the TCA cycle. Over time, the viability of cells exposed to an MCT1 inhibitor is impaired due to pyruvate deprivation, which is compensated by upregulating glucose metabolism—leading to an overconsumption of glucose. To confirm the antiproliferative nature of the indole derivatives, we investigated the compounds toward the MCT1-expressing cell lines A-549[14],[15] and MCF-7.[16] Cancer cell viability was assessed via a 3-(4,5-dimethylthiazol-2-yl)-2,5-diphenyltetrazolium bromide (MTT) assay, as reported earlier.[43]
(§2) To determine the growth inhibitory potential of compounds 17–32, […] of each compound either at concentrations between 1 and 100 μM (A-549 or MCF-7) or at 10 and 50 μM (NIH/3T3) was pipetted into colorless flat-bottom 96-well microplates. Thereafter, 180 μL of a cell suspension (5000 cells/well) of either A-549, MCF-7, or NIH/3T3 cells was added and subsequently kept for 72 h at 37 °C under a 5% CO2-humidified atmosphere. The cell viability as well as the GI50 values were determined as described above.[43]

Data set [2] addresses ABCB1 (Homo sapiens, UniProt P08183). The data set is described as follows: calcein AM assay, ABCB1-expressing A2780/ADR cells. Particulars: screening at 10 μM, inhibitor if 20% (+SEM) reached.
Text: (§3) To provide a detailed picture of the pharmacological profile of the indole derivatives, we investigated their modulatory nature on the most prominent ABC transporters ABCB1 (P-glycoprotein, P-gp), ABCC1, (multidrug resistance-associated protein 1, MRP1), and ABCG2 (breast cancer resistance protein, BCRP). Here, we conducted calcein AM (ABCB1),[2],[52]−[59] daunorubicin (ABCC1),[52],[58]−[60] and pheophorbide A (ABCG2)[2],[52]−[60] assays using ABCB1-expressing A2780/ADR, ABCC1-expressing H69AR, and ABCG2-expressing MDCK II BCRP cells, respectively.
(§4) The calcein AM (ABCB1),[2],[52]−[59] daunorubicin (ABCB1[52],[60] and ABCC1[52],[58]−[60]), and pheophorbide A (ABCG2)[2],[52]−[60] assays were conducted as reported earlier. […] The data was processed using GraphPad Prism version 8.4.0, and IC50 values were determined, applying three- or four-parameter logistic equations, whatever was statistically preferred.
For data set [3], the target named is T1, MCT1 (Homo sapiens, UniProt P53985).
T1 construct: MCT1-expressing A-549 cells[14],[15] were exposed to the MCT1 substrate 3-BP, which becomes influxed by MCT1; endogenous in cells; host or cells: A-549 lung cancer cells (from NCCS, Pune)
T1 sequence (P53985 1-500): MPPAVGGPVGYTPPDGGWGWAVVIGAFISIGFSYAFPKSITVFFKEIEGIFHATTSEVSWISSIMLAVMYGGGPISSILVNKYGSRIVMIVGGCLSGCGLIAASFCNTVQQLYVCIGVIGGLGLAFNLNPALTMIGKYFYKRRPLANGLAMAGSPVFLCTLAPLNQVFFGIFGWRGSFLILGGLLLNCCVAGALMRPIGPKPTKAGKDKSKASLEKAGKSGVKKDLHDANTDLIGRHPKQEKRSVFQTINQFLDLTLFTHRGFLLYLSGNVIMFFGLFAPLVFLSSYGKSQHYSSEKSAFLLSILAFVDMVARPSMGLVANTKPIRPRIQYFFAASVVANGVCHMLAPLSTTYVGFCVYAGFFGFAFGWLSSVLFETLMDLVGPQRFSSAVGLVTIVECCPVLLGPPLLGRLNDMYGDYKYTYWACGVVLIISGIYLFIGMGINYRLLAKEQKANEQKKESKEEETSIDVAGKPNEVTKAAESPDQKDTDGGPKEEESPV
T1 sequence (P35613 140-385 partner limits assumed): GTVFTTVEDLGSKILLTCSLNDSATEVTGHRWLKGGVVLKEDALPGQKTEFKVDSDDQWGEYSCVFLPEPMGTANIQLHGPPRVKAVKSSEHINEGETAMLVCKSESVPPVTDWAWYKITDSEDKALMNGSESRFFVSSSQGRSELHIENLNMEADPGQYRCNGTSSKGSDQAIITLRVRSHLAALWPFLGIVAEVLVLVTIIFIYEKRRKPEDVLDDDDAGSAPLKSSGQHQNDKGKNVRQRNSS
As to the kind of experiment: functional 3-BP cell viability assay (MCT1 transport inhibition). The data set is classed as cell-based. The note with it: MCT1-expressing A-549 cells, 50 μM 3-BP, 72 h; read-out: MCT1 transport inhibition IC50 ± SEM. The method, then: The inhibitory activity of indole derivatives against MCT1 was determined by applying a functional 3-bromopyruvate (3-BP) cell viability assay, as described in the literature[20],[39] with minor modifications. In short, MCT1-expressing A-549 cells[14],[15] were exposed to the MCT1 substrate 3-BP, which becomes influxed by MCT1. 3-BP is toxic, leading to decreased cell viability. Functional inhibition of MCT1 results in reduced intracellular 3-BP levels and, thus, enhanced cell viability compared to no inhibition. […] Table 1 provides the half-maximal inhibition concentration (IC50) values of compounds 17–32.
A functional 3-BP cytotoxicity assay was conducted as described in the literature[20],[39] with minor modifications. Dilution series of compounds 17–32 between 1 nM and 1 μM were prepared in DPBS (Cell Clone, Genetix Biotech Asia, New Delhi India), and 10 μL of each concentration was pipetted into a colorless flat-bottom 96-well microplate (SPL Life Sciences, Gyeonggi-do, Republic of Korea). One hundred and eighty microliters of a cell suspension (5000 cells/well) of A-549 cells was added, and subsequently, 10 μL of 3-BP was added at a concentration of 1 mM (final concentration per well: 50 μM). The plate was kept for 72 h at 37 °C under a 5% CO2-humidified atmosphere. Cell viability was determined as described before[43] by adding 20 μL of a 5 mg/mL solution of MTT to each well and further incubation for 1 h. Eventually, the supernatant was removed and 100 μL of DMSO was added to each well. The absorbance was spectrophotometrically determined at 570 nm using a SpectraMax iD3 multi-mode microplate reader (Molecular Devices, San Jose, CA) with a background correction (690 nm). The determined absorbance values were correlated to the logarithmic concentrations of compounds 17–32, and IC50 values were calculated applying nonlinear regression using GraphPad Prism (version 8.4.0., San Diego, CA).

For data set [4], the system named is MCF-7 cancer cells. The data set is described as follows: MTT-based cell viability assay, MCF-7. Particulars: Homo sapiens, MCF7, 72 h, read-out: MCF-7 cancer cell toxicity GI50 ± SEM.
Text: as §1, §2

Data set [5] concerns the target ABCC1 (Homo sapiens, UniProt P33527). As to the kind of experiment: daunorubicin assay, ABCC1-expressing H69AR cells. Particulars: screening at 10 μM, inhibitor if 20% (+SEM) reached.
Text: as §3, §4

The structures appear in SMILES notation.

Chain of ABCB1 (P08183 whole entry): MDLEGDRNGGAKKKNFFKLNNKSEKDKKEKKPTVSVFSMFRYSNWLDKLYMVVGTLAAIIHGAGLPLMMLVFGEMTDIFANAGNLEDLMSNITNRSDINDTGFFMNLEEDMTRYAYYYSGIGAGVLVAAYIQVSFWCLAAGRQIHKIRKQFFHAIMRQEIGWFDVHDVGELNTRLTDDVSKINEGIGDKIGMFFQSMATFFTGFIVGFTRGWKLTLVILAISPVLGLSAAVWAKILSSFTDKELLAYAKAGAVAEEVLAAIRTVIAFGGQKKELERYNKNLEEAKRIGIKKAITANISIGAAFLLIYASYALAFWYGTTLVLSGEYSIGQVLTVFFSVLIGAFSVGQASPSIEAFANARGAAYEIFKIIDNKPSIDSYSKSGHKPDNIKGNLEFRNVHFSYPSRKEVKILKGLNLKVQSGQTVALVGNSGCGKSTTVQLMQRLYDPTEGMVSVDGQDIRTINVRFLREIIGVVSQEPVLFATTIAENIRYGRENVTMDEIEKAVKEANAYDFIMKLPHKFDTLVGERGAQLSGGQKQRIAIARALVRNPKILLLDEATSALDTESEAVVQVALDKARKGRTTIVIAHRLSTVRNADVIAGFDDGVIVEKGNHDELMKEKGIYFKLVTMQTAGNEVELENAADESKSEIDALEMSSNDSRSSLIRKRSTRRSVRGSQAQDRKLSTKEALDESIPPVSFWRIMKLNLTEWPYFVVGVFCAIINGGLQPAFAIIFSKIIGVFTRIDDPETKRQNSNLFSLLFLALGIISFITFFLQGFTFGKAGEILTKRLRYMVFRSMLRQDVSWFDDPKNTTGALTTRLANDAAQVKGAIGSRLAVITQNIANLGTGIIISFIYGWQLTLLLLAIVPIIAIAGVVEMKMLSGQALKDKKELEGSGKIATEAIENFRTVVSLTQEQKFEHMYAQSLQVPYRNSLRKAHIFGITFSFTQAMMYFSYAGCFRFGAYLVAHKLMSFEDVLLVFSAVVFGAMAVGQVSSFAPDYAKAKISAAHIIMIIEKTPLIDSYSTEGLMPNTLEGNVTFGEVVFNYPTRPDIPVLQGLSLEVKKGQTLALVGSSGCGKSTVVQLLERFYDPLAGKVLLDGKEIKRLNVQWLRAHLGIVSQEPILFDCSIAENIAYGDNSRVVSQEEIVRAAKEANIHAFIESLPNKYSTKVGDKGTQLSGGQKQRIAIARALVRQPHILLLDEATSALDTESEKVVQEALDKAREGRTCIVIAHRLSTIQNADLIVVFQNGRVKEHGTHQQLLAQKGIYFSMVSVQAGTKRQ
Chain of ABCC1 (P33527 whole entry): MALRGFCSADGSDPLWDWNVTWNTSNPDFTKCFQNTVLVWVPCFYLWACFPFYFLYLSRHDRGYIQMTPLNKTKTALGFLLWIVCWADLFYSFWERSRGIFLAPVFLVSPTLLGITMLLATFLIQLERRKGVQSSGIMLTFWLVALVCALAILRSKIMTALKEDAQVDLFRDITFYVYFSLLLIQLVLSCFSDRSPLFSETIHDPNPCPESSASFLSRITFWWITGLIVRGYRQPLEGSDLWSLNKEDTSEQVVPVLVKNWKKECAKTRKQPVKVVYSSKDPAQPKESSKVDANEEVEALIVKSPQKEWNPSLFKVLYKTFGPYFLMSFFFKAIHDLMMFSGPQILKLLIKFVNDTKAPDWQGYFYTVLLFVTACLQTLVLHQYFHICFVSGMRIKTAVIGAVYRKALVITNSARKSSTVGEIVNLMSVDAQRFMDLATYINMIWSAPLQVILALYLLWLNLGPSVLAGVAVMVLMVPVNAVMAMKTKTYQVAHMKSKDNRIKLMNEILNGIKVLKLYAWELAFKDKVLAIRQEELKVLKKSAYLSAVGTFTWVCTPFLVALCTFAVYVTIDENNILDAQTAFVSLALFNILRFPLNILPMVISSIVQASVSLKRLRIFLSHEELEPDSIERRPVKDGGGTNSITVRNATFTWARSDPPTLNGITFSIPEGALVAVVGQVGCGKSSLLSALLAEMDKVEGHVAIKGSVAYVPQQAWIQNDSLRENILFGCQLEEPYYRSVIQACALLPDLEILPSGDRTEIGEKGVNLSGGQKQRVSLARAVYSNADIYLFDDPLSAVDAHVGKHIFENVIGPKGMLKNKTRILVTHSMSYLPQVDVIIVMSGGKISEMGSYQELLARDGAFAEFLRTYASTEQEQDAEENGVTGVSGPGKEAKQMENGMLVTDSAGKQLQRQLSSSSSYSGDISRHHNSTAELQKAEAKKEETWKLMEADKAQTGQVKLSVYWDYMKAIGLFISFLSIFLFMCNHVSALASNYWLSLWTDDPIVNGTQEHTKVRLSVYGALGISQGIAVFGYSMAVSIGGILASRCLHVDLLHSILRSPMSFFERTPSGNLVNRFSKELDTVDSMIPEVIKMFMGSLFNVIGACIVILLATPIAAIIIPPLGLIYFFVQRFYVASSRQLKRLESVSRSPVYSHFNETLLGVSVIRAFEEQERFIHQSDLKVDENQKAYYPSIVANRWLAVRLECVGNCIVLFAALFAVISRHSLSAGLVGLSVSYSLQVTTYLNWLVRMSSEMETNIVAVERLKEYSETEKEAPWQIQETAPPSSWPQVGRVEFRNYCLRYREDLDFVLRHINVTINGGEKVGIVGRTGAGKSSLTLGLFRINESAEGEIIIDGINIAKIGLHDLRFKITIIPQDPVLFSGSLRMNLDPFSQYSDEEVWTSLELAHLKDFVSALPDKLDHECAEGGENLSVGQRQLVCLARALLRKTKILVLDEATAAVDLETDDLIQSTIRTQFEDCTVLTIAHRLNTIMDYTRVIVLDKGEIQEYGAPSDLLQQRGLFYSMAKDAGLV

A word on the GI50: it is the concentration that inhibits growth by half. One may read the IC50 as the concentration that gives 50% inhibition. As to `COC(=O)/C(C#N)=C/c1cn(CC(=O)Nc2ccccc2)c2ccccc12` [Compound 17, Methyl-2-cyano-3-(1-(2-oxo-2-(phenylamino)ethyl)-1H-indol-3-yl) Acrylate], the GI50 in data set [1] is 29.2 ± 0.2 µM; in data set [4], 15.4 ± 0.3 µM. The ABCB1 inhibition entry in data set [2] was “X (Compounds were considered as inhibitors if they reached 20% (+SEM) inhibition compared to the reference inhibitors 33–35; X = fulfilled)”. Also, the IC50 in data set [3] was 0.314 ± 0.047 µM.
For `COC(=O)/C(C#N)=C/c1cn(CC(=O)Nc2cccc3ccccc23)c2ccccc12` [Compound 18, Methyl-2-cyano-3-(1-(2-(naphthalen-1-ylamino)-2-oxoethyl)-1H-indol-3-yl) Acrylate], the GI50 is 21.5 ± 0.4 µM in data set [1] and 15.4 ± 0.5 µM in data set [4]. Further, the ABCB1 inhibition result in data set [2] was “X (Compounds were considered as inhibitors if they reached 20% (+SEM) inhibition compared to the reference inhibitors 33–35; X = fulfilled)”. Further, the 50% inhibitory concentration (IC50) in data set [3] is 0.193 ± 0.01 µM.
The matching figures for `COC(=O)/C(C#N)=C/c1cn(CC(=O)Nc2ccc3ccccc3c2)c2ccccc12` [Compound 19, Methyl-2-cyano-3-(1-(2-(naphthalen-2-ylamino)-2-oxoethyl)-1H-indol-3-yl) Acrylate]: 26.9 ± 0.3 µM, 15.5 ± 1.3 µM, “X (Compounds were considered as inhibitors if they reached 20% (+SEM) inhibition compared to the reference inhibitors 33–35; X = fulfilled)” and 0.109 ± 0.003 µM.
As for `COC(=O)/C(C#N)=C/c1cn(CC(=O)Nc2ccccc2C)c2ccccc12` [Compound 20, Methyl-2-cyano-3-(1-(2-oxo-2-(o-tolylamino)ethyl)-1H-indol-3-yl) Acrylate], the ABCC1 inhibition entry in data set [5] is recorded as “X (Compounds were considered as inhibitors if they reached 20% (+SEM) inhibition compared to the reference inhibitors 33–35; X = fulfilled)”. Also, the concentration for 50% growth inhibition (GI50) in data set [1] came to 28.3 ± 0.1 µM; in data set [4], 15.3 µM. Besides, the ABCB1 inhibition entry in data set [2] is listed as “X (Compounds were considered as inhibitors if they reached 20% (+SEM) inhibition compared to the reference inhibitors 33–35; X = fulfilled)”. For the same molecule, in data set [3], the IC50 stood at 0.105 ± 0.006 µM.
`COC(=O)/C(C#N)=C/c1cn(CC(=O)Nc2ccc(C)cc2)c2ccccc12` [Compound 21, Methyl-2-cyano-3-(1-(2-oxo-2-(p-tolylamino)ethyl)-1H-indol-3-yl) Acrylate]: in data set [5], the ABCC1 inhibition result is listed as “X (Compounds were considered as inhibitors if they reached 20% (+SEM) inhibition compared to the reference inhibitors 33–35; X = fulfilled)”. The GI50 in data set [1] was determined as 14 ± 0.5 µM; in data set [4], 13.9 ± 0.1 µM. Further, the ABCB1 inhibition entry in data set [2] is given as “X (Compounds were considered as inhibitors if they reached 20% (+SEM) inhibition compared to the reference inhibitors 33–35; X = fulfilled)”. Moreover, the IC50 in data set [3] was determined as 0.112 ± 0.01 µM.
With `COC(=O)/C(C#N)=C/c1cn(CC(=O)Nc2ccc(F)cc2)c2ccccc12` [Compound 25, Methyl-2-cyano-3-(1-(2-((4-fluorophenyl)amino)-2-oxoethyl)-1H-indol-3-yl) Acrylate], the ABCC1 inhibition result in data set [5] is given as “X (Compounds were considered as inhibitors if they reached 20% (+SEM) inhibition compared to the reference inhibitors 33–35; X = fulfilled)”. Further, the results for the GI50 in data set [1] and in data set [4] were 22 ± 0.6 µM and 15.1 ± 0.3 µM, respectively. Further, in data set [2], the ABCB1 inhibition result is “X (Compounds were considered as inhibitors if they reached 20% (+SEM) inhibition compared to the reference inhibitors 33–35; X = fulfilled)”. Besides, the IC50 in data set [3] was 0.793 ± 0.138 µM.
In the case of `COC(=O)/C(C#N)=C/c1cn(CC(=O)Nc2ccc(Cl)cc2)c2ccccc12` [Compound 26, Methyl-3-(1-(2-((4-chlorophenyl)amino)-2-oxoethyl)-1H-indol-3-yl)-2-cyanoacrylate], the ABCC1 inhibition entry in data set [5] is reported as “X (Compounds were considered as inhibitors if they reached 20% (+SEM) inhibition compared to the reference inhibitors 33–35; X = fulfilled)”. Moreover, the GI50 in data set [1] was determined as 21 ± 0.4 µM; in data set [4], 10.7 ± 0.4 µM. In data set [2], the ABCB1 inhibition entry is listed as “X (Compounds were considered as inhibitors if they reached 20% (+SEM) inhibition compared to the reference inhibitors 33–35; X = fulfilled)”. The IC50 in data set [3] worked out at 0.196 ± 0.005 µM.
As for `COC(=O)/C(C#N)=C/c1cn(CC(=O)Nc2c(Cl)cccc2Cl)c2ccccc12` [Compound 27, Methyl-2-cyano-3-(1-(2-((2,6-dichlorophenyl)amino)-2-oxoethyl)-1H-indol-3-yl) Acrylate], in data set [5], the ABCC1 inhibition result is recorded as “X (Compounds were considered as inhibitors if they reached 20% (+SEM) inhibition compared to the reference inhibitors 33–35; X = fulfilled)”. Further, the GI50 in data set [1] was 25 ± 0.5 µM; in data set [4] it was 17.3 ± 0.6 µM. Also, in data set [2], the ABCB1 inhibition entry was “X (Compounds were considered as inhibitors if they reached 20% (+SEM) inhibition compared to the reference inhibitors 33–35; X = fulfilled)”. Also, the IC50 in data set [3] stood at 0.109 ± 0.002 µM.
Turning to `COC(=O)/C(C#N)=C/c1cn(CC(=O)Nc2ccc(Br)cc2)c2ccccc12` [Compound 28, Methyl-3-(1-(2-((4-bromophenyl)amino)-2-oxoethyl)-1H-indol-3-yl)-2-cyanoacrylate], the GI50 in data set [1] came to 19.2 ± 0.2 µM; in data set [4] it was 9.99 ± 0.46 µM. In data set [2], the ABCB1 inhibition entry is reported as “X (Compounds were considered as inhibitors if they reached 20% (+SEM) inhibition compared to the reference inhibitors 33–35; X = fulfilled)”. The IC50 in data set [3] stood at 0.287 ± 0.047 µM.
Consider `COC(=O)/C(C#N)=C/c1cn(CC(=O)Nc2ccccn2)c2ccccc12` [Compound 29, Methyl-2-cyano-3-(1-(2-oxo-2-(pyridin-2-ylamino)ethyl)-1H-indol-3-yl) Acrylate], for which the GI50 in data set [1] came to 17.1 ± 0.4 µM; in data set [4], 4.32 ± 0.14 µM. Moreover, in data set [3], the IC50 was determined as 0.198 ± 0.004 µM.
Consider `COC(=O)/C(C#N)=C/c1cn(CC(=O)Nc2cccnc2)c2ccccc12` [Compound 32, Methyl-2-cyano-3-(1-(2-oxo-2-(pyridin-3-ylamino)ethyl)-1H-indol-3-yl) Acrylate], for which the ABCC1 inhibition result in data set [5] is given as “X (Compounds were considered as inhibitors if they reached 20% (+SEM) inhibition compared to the reference inhibitors 33–35; X = fulfilled)”. The GI50 in data set [1] is 19.2 ± 0.4 µM; in data set [4], 11.1 ± 0.2 µM. In addition, the ABCB1 inhibition entry in data set [2] is on record as “X (Compounds were considered as inhibitors if they reached 20% (+SEM) inhibition compared to the reference inhibitors 33–35; X = fulfilled)”. Further, the IC50 in data set [3] was 0.109 ± 0.003 µM.
